Experimental data taken from patent US20230310393A1 (Tianjin Creatron Biotechnology Co., Ltd., priority 2020, published 2023).
≈ marks a conversion by molar mass, not a printed value. Like-named read-outs stand apart in the source and are kept apart here.

Experiments:
[1] = Solubility of sorafenib in different organic solvents; type: physicochemical; conditions: for solubility at 30 min / solubility at 24 h: organic solvent, 37 °C, organic solvent or mixture, thermodynamic from solid
[2] = Stability of sorafenib in different organic solvents (related substances by HPLC); type: physicochemical
[3] = Solubility test of solid dispersions (pH 1.0 hydrochloric acid, pH 6.8 phosphate buffer, FaSSGF, FaSSIF); type: physicochemical; conditions: main drug:carrier 1:3; for Solubility: pH 1.0 hydrochloric acid solution, 37° C., listed as SLFN
Method: An appropriate amount of solid dispersion (SD) was added to a pH 1.0 hydrochloric acid solution and a pH 6.8 phosphate buffer solution, while keeping the SD in excess, and shaken at 37° C. in a shaker at 300 rpm.

[4] = Stability of solid dispersions at high temperature of 60° C. (related substances by HPLC); type: physicochemical
Method: The SD prepared above was sealed in an aluminum foil bag, placed in a high temperature of 60° C. for investigation for 10 days and 30 days, and related substances were detected by HPLC method.

[5] = healthy volunteer, oral 100 mg 14C radiolabeled sorafenib; cited from earlier work
[6] = renal cell carcinoma patients; cited from earlier work
[7] = cited from earlier work
[8] = acetone-ethanol 1:2, standing 30 min
[9] = acetone-ethanol 1:2, standing 24 h
[10] = dichloromethane-acetone 3:1, standing 30 min
[11] = dichloromethane-acetone 3:1, standing 24 h
[12] = methanol-dichloromethane 1:2, standing 30 min
[13] = methanol-dichloromethane 1:2, standing 24 h
[14] = methanol-dichloromethane 1:3, standing 30 min
[15] = methanol-dichloromethane 1:3, standing 24 h
[16] = methanol-dichloromethane 1:4, standing 30 min
[17] = methanol-dichloromethane 1:4, standing 24 h

Solubility ([1]; acetone-ethanol 1:2, 30 min, 37° C.): 18.51 mg/mL (≈ 39.8 mM)
Solubility ([1]; acetone-ethanol 1:2, 24 h, 37° C.): 18.48 mg/mL (≈ 39.8 mM)
Solubility (visual inspection) ([1]; acetone-ethanol 1:3 and 1:5, 30 min): Less API dissolved by visual
Solubility (visual inspection) ([1]; dichloromethane-acetone 1:1 and 2:1, 30 min): Less API dissolved by visual
Solubility ([1]; methanol-dichloromethane 1:1, 30 min, 37° C.): 14.28 mg/mL (≈ 30.7 mM)
solubility at 30 min ([1]; dichloromethane-acetone 3:1, 30 min, 37° C.): 3.6 mg/mL (≈ 7.74 mM)
solubility at 24 h ([1]; dichloromethane-acetone 3:1, 24 h, 37° C.): 4.04 mg/mL (≈ 8.69 mM)
solubility at 30 min ([1]; isopropanol, 30 min): 2.91 mg/mL (≈ 6.26 mM)
solubility at 24 h ([1]; isopropanol, 24 h): 2.81 mg/mL (≈ 6.05 mM)
solubility at 30 min ([1]; methanol-dichloromethane 1:0.5 (v/v), 30 min, 37° C.): 8.34 mg/mL (≈ 17.9 mM)
solubility at 24 h ([1]; methanol-dichloromethane 1:0.5 (v/v), 24 h, 37° C.): 19.2 mg/mL (≈ 41.2 mM)
solubility at 24 h ([1]; methanol-dichloromethane 1:1, 24 h, 37° C.): 24.2 mg/mL (≈ 52.1 mM)
solubility at 30 min ([1]; methanol-dichloromethane 1:2, 30 min, 37° C.): 20.9 mg/mL (≈ 45 mM)
solubility at 24 h ([1]; methanol-dichloromethane 1:2, 24 h, 37° C.): 36.2 mg/mL (≈ 77.8 mM)
solubility at 30 min ([1]; methanol-dichloromethane 1:3, 30 min, 37° C.): 36.4 mg/mL (≈ 78.2 mM)
solubility at 24 h ([1]; methanol-dichloromethane 1:3, 24 h, 37° C.): 36.4 mg/mL (≈ 78.4 mM)
solubility at 30 min ([1]; methanol-dichloromethane 1:4, 30 min, 37° C.): 31.3 mg/mL (≈ 67.4 mM)
solubility at 24 h ([1]; methanol-dichloromethane 1:4, 24 h, 37° C.): 36.3 mg/mL (≈ 78.1 mM)
Related substances RRT 0.08 ([2]; API, no solvent): 0.008%
Related substances RRT 0.30 ([2]; API, no solvent): 0.029%
Related substances RRT 0.40 ([2]; API, no solvent): 0.006%
Related substances RRT 0.55 ([2]; API, no solvent): 0.028%
Related substances RRT 0.92 ([2]; API, no solvent): 0.054%
Related substances RRT 1.00 ([2]; API, no solvent): 99.864%
Related substances RRT 0.05 [2, 8]: 4.314%
Related substances RRT 0.08 [2, 8]: 0.011%
Related substances RRT 0.30 [2, 8]: 0.029%
Related substances RRT 0.40 [2, 8]: 0.008%
Related substances RRT 0.55 [2, 8]: 0.025%
Related substances RRT 0.92 [2, 8]: 0.047%
Related substances RRT 1.00 [2, 8]: 95.562%
Related substances RRT 0.05 [2, 9]: 3.946%
Related substances RRT 0.08 [2, 9]: 0.010%
Related substances RRT 0.30 [2, 9]: 0.033%
Related substances RRT 0.40 [2, 9]: 0.007%
Related substances RRT 0.55 [2, 9]: 0.020%
Related substances RRT 0.92 [2, 9]: 0.035%
Related substances RRT 1.00 [2, 9]: 95.893%
Related substances RRT 0.05 [2, 10]: 12.979%
Related substances RRT 0.08 [2, 10]: 2.491%
Related substances RRT 0.30 [2, 10]: 0.020%
Related substances RRT 0.35 [2, 10]: 0.282%
Related substances RRT 0.92 [2, 10]: 0.039%
Related substances RRT 1.00 [2, 10]: 84.196%
Related substances RRT 0.05 [2, 11]: 14.191%
Related substances RRT 1.00 [2, 11]: 85.157%
Related substances RRT 0.03 ([2]; isopropanol, standing 30 min): 0.161%
Related substances RRT 1.00 ([2]; isopropanol, standing 30 min): 99.839%
Related substances RRT 1.00 ([2]; isopropanol, standing 24 h): 99.365%
Related substances RRT 0.08 [2, 12]: 0.011%
Related substances RRT 0.30 [2, 12]: 0.030%
Related substances RRT 0.40 [2, 12]: 0.008%
Related substances RRT 0.55 [2, 12]: 0.031%
Related substances RRT 0.92 [2, 12]: 0.037%
Related substances RRT 1.00 [2, 12]: 99.870%
Related substances RRT 0.08 [2, 13]: 0.013%
Related substances RRT 0.30 [2, 13]: 0.035%
Related substances RRT 0.40 [2, 13]: 0.009%
Related substances RRT 0.55 [2, 13]: 0.028%
Related substances RRT 0.92 [2, 13]: 0.049%
Related substances RRT 1.00 [2, 13]: 99.853%
Related substances RRT 0.08 [2, 14]: 0.015%
Related substances RRT 0.30 [2, 14]: 0.029%
Related substances RRT 0.40 [2, 14]: 0.006%
Related substances RRT 0.55 [2, 14]: 0.026%
Related substances RRT 0.92 [2, 14]: 0.050%
Related substances RRT 1.00 [2, 14]: 99.861%
Related substances RRT 0.08 [2, 15]: 0.012%
Related substances RRT 0.30 [2, 15]: 0.035%
Related substances RRT 0.40 [2, 15]: 0.009%
Related substances RRT 0.55 [2, 15]: 0.025%
Related substances RRT 0.92 [2, 15]: 0.037%
Related substances RRT 1.00 [2, 15]: 99.872%
Related substances RRT 0.08 [2, 16]: 0.013%
Related substances RRT 0.30 [2, 16]: 0.028%
Related substances RRT 0.40 [2, 16]: 0.007%
Related substances RRT 0.55 [2, 16]: 0.024%
Related substances RRT 0.92 [2, 16]: 0.034%
Related substances RRT 1.00 [2, 16]: 99.884%
Related substances RRT 0.08 [2, 17]: 0.013%
Related substances RRT 0.30 [2, 17]: 0.028%
Related substances RRT 0.40 [2, 17]: 0.008%
Related substances RRT 0.55 [2, 17]: 0.032%
Related substances RRT 0.92 [2, 17]: 0.045%
Related substances RRT 1.00 [2, 17]: 99.862%
Solubility ([3]; 0.5 h): <0.09 µg/mL
Solubility ([3]; 2 h): <0.09 µg/mL
Solubility ([3]; 4 h): <0.09 µg/mL
solubility at 0.5 h ([3]; phosphate buffer, 37 °C, pH 6.8, aqueous buffer, thermodynamic from solid, pH 6.8 phosphate buffer solution, 0.5 h): < 0.09 µg/mL
solubility at 2 h ([3]; phosphate buffer, 37 °C, pH 6.8, aqueous buffer, thermodynamic from solid, pH 6.8 phosphate buffer solution, 2 h): < 0.09 µg/mL
solubility at 4 h ([3]; phosphate buffer, 37 °C, pH 6.8, aqueous buffer, thermodynamic from solid, pH 6.8 phosphate buffer solution, 4 h): < 0.09 µg/mL
Related substances: CTF-aniline ([4]; 0 day): Not detected
Related substances: Maximum single impurity ([4]; 0 day): 0.03%
Related substances: Total impurity ([4]; 0 day): 0.09%
Related substances: CTF-aniline ([4]; 10 days): Not detected
Related substances: Maximum single impurity ([4]; 10 days): 0.04%
Related substances: Total impurity ([4]; 10 days): 0.10%
Related substances: CTF-aniline ([4]; 30 days): Not detected
Related substances: Maximum single impurity ([4]; 30 days): 0.05%
Related substances: Total impurity ([4]; 30 days): 0.10%
Structure (SMILES): CNC(=O)c1cc(Oc2ccc(NC(=O)Nc3ccc(Cl)c(C(F)(F)F)c3)cc2)ccn1 [sorafenib, 4-{4-[3-(4-chloro-3-trifluoromethyl-phenyl)acylurea]-phenoxy}-pyridine-2-carboxylic acid methylamine]
change in related substances ([2]; methanol-dichloromethane (1:3), 30 min and 24 h): no significant change in related substances
administered dose excreted through feces [5]: 77%
prototype drug excreted through feces [5]: above 51%
blood concentration of patients with serious adverse reactions [6]: more than 10,000 ng/ml
incidence of diarrhea [6]: 76.5%
incidence of fatigue [6]: 55.32%
incidence of hand-foot syndrome [6]: 68.99%
Solubility ([7]; pH1): 0.0034 mg/mL (≈ 0.00731 mM)
Solubility ([7]; pH4.5): 0.00013 mg/mL (≈ 0.00028 mM)
